Columns and labels:
[1] = Visual cytotoxicity in BSC-1 cells; type: cell-based, African green monkey; conditions: monkey, visual cytotoxicity at time of HSV-1 plaque enumeration, read-out: 50% Inhibitory Concentration, Cytotoxicity BSC
Source text: Cytotoxicity produced in HFF and BSC-1 cells was estimated by visual scoring of cells not affected by virus infection in the HCMV and HSV-1 plaque reduction assays. Cytopathology was estimated at 35- and 60-fold magnification and scored on a zero to four plus basis. Wells were scored on the day of staining.

[2] = test system: HCMV DNA synthesis; assay: HCMV DNA synthesis by dot-blot hybridization; type: cell-based, human cytomegalovirus; conditions: Human betaherpesvirus 5; Table 2; read-out: 50% Inhibitory Concentration, HCMV DNA Synthesis
Protocol: The amount of HCMV DNA synthesis was determined in two types of experiments: (a) as an integral part of HCMV titer (yield) reduction experiments and (b) as separate experiments to determine only the amount of viral DNA synthesis in the absence or presence of test compounds.
HFF cells were planted in 25 cm^2 flasks and infected with HCMV as described in part 2 and incubated at 37° C. Before harvesting at selected times by the addition of 0.1 volume of 0.2M EDTA, an aliquot of medium was removed for determination of HCMV titer. After harvesting cells into the medium, aliquots were retained for determination of HCMV DNA by hybridization.
HFF cells were planted in 96-well cluster plates at 20,000 cell/well in 200 μl of growth medium [MEM(E)] with 1.1 gm/liter NaHCO3 and 10% fetal bovine serum. […]
Following hybridization, the membrane was washed sequentially in 100 ml 2×SSC at room temperature twice each for 5 minutes, 100 ml 2×SCC plus 1% SDS at 65° C. twice each for 30 minutes and then 100 ml 0.1×SSC at room temperature twice each for 30 minute. The membrane was dried at room temperature and each filtration spot was cut from the membrane and placed into 4 ml of toluene/DPO scintillant and hybridized label counted in a liquid scintillation spectrometer.

[3] = test system: MCMV; assay: Mortality of mice infected with murine cytomegalovirus; type: in vivo
Protocol: Compound UMJD 183 was tested in mice infected with murine cytomegalovirus (MCMV). This animal model has been recognized as having capabilities predictive of efficacy in humans.
Compound UMJD 183 and the drug ganciclovir (DHPG) were administered to groups of 15 mice each at doses and times of administration shown in Table 3. Each compound at all doses was administered intraperitoneally twice daily for five days beginning at either 6, 24 or 48 hours after virus inoculation. Animals were observed daily and the number dying each day recorded.
^a Animlas were treated i.p. twice daily for 5 days with the doses
stated above. Treatment was initiated at the times indicated following

[4] = 0.6 mg/kg i.p. twice daily, from 6 h
[5] = 0.6 mg/kg i.p. twice daily, from 24 h
[6] = 0.6 mg/kg i.p. twice daily, from 48 h
[7] = 1.9 mg/kg i.p. twice daily, from 6 h
[8] = 1.9 mg/kg i.p. twice daily, from 24 h
[9] = 1.9 mg/kg i.p. twice daily, from 48 h
[10] = 5.6 mg/kg i.p. twice daily, from 6 h
[11] = 5.6 mg/kg i.p. twice daily, from 24 h
[12] = 5.6 mg/kg i.p. twice daily, from 48 h
[13] = 16.7 mg/kg i.p. twice daily, from 6 h
[14] = 16.7 mg/kg i.p. twice daily, from 24 h
[15] = 16.7 mg/kg i.p. twice daily, from 48 h

Nc1nc(O)c2ncn(COC(CO)CO)c2n1 [Ganciclovir (DHPG), reference compound]
CC50 [1]: > 100000 nM
IC50 [2]: 1200 nM
MDD (Mean Day of Death) [3, 4]: 4.6
Mortality Percent [3, 4]: 93%
MDD (Mean Day of Death) [3, 5]: 5.4
Mortality Percent [3, 5]: 80%
MDD (Mean Day of Death) [3, 6]: 5.3
Mortality Percent [3, 6]: 93%
MDD (Mean Day of Death) [3, 7]: 5.4
Mortality Percent [3, 7]: 33%
MDD (Mean Day of Death) [3, 8]: 4.9
Mortality Percent [3, 8]: 80%
MDD (Mean Day of Death) [3, 9]: 4.9
Mortality Percent [3, 9]: 73%
MDD (Mean Day of Death) [3, 10]: 4.2
Mortality Percent [3, 10]: 33%
MDD (Mean Day of Death) [3, 11]: 5.3
Mortality Percent [3, 11]: 47%
MDD (Mean Day of Death) [3, 12]: 5.5
Mortality Percent [3, 12]: 67%
MDD (Mean Day of Death) [3, 13]: 3.8
Mortality Percent [3, 13]: 27%
MDD (Mean Day of Death) [3, 14]: 5.3
Mortality Percent [3, 14]: 47%
MDD (Mean Day of Death) [3, 15]: 5.5
Mortality Percent [3, 15]: 53%
